In ChEMBL document CHEMBL5154867, “Baylis-Hillman Adducts as a Versatile Module for Constructing Fluorogenic Release System” (J Med Chem, 2022) one finds Activity data, which are given here for nine compounds.

The nature of data set [1]: Prodrug activation in PBS at pH 7.4 assessed as drug release at 10 uM in presence of 1 mM GSH measured after 60 mins by HPLC analysis relative to control. The conditions noted are these: buffer, pH 7.4, 1 h.
Data set [2] in a line: Prodrug activation in PBS at pH 7.4 assessed as drug release by measuring maximal fluorescence change at 10 uM in presence of 1 mM GSH measured after 30 mins relative to control. The following applies: buffer, pH 7.4, 0.5 h.
Data set [3] in a line: Prodrug activation in PBS at pH 7.4 assessed as drug release by measuring maximal fluorescence change at 10 uM in presence of 1 mM GSH measured after 20 mins relative to control. The conditions noted are these: buffer, pH 7.4, 20 min.
Data set [4] can be described thus: Prodrug activation in PBS at pH 7.4 assessed as drug release by measuring maximal fluorescence change at 10 uM in presence of 1 mM GSH measured after 10 mins relative to control. The conditions noted are these: buffer, pH 7.4, 10 min.
Data set [5] in a line: Prodrug activation in PBS at pH 7.4 assessed as drug release by measuring maximal fluorescence change at 10 uM in presence of 1 mM GSH measured after 50 mins relative to control. The following applies: buffer, pH 7.4, 50 min.
Data set [6] is described as follows: Prodrug activation in PBS at pH 7.4 assessed as drug release at 10 uM in presence of 1 mM GSH measured after 50 mins by HPLC analysis relative to control. The conditions noted are these: buffer, pH 7.4, 50 min.
The nature of data set [7]: Prodrug activation in PBS at pH 7.4 assessed as drug release by measuring maximal fluorescence change at 10 uM in presence of 1 mM GSH measured immediately relative to control. The following applies: buffer, pH 7.4, 10 µM.
Data set [8] can be described thus: Prodrug activation in PBS at pH 7.4 assessed as drug release at 10 uM in presence of 1 mM GSH measured after 30 mins by HPLC analysis relative to control. The following applies: buffer, pH 7.4, 0.5 h.
A short description of data set [9]: Prodrug activation in PBS at pH 7.4 assessed as drug release at 10 uM in presence of 1 mM GSH measured after 10 mins by HPLC analysis relative to control. The following applies: buffer, pH 7.4, 10 min.
The nature of data set [10]: Prodrug activation in PBS at pH 7.4 assessed as drug release at 10 uM in presence of 1 mM GSH measured immediately by HPLC analysis relative to control. The following applies: buffer, pH 7.4, 10 µM.
A short description of data set [11]: Prodrug activation in PBS at pH 7.4 assessed as drug release at 10 uM in presence of 1 mM GSH measured after 40 mins by HPLC analysis relative to control. The following applies: buffer, pH 7.4, 40 min.
A short description of data set [12]: Prodrug activation in PBS at pH 7.4 assessed as drug release by measuring maximal fluorescence change at 10 uM in presence of 1 mM GSH measured after 60 mins relative to control. The following applies: buffer, pH 7.4, 1 h.
Data set [13] can be described thus: Prodrug activation in PBS at pH 7.4 assessed as drug release at 10 uM in presence of 1 mM GSH measured after 20 mins by HPLC analysis relative to control. The conditions noted are these: buffer, pH 7.4, 20 min.
The nature of data set [14]: Prodrug activation in PBS at pH 7.4 assessed as drug release by measuring maximal fluorescence change at 10 uM in presence of 1 mM GSH measured after 40 mins relative to control. The conditions noted are these: buffer, pH 7.4, 40 min.
Data set [15] is described as follows: Prodrug activation in PBS at pH 7.4 assessed as drug release by measuring maximal fluorescence change at 10 uM in presence of 2 mM GSH measured after 60 mins relative to control. The conditions noted are these: buffer, pH 7.4, 1 h.
Data set [16] can be described thus: Prodrug activation in PBS at pH 7.4 assessed as drug release at 10 uM in presence of 2 mM GSH measured after 60 mins by HPLC analysis relative to control. The following applies: buffer, pH 7.4, 1 h.
The nature of data set [17]: Prodrug activation in PBS at pH 7.4 assessed as drug release at 10 uM in presence of 2 mM GSH measured after 40 mins by HPLC analysis relative to control. The conditions noted are these: buffer, pH 7.4, 40 min.
The nature of data set [18]: Prodrug activation in PBS at pH 7.4 assessed as drug release by measuring maximal fluorescence change at 10 uM in presence of 2 mM GSH measured after 30 mins relative to control. The following applies: buffer, pH 7.4, 0.5 h.
Data set [19] is described as follows: Prodrug activation in PBS at pH 7.4 assessed as drug release by measuring maximal fluorescence change at 10 uM in presence of 2 mM GSH measured after 50 mins relative to control. The conditions noted are these: buffer, pH 7.4, 50 min.
Data set [20] is described as follows: Prodrug activation in PBS at pH 7.4 assessed as drug release at 10 uM in presence of 2 mM GSH measured after 50 mins by HPLC analysis relative to control. The conditions noted are these: buffer, pH 7.4, 50 min.
Data set [21] can be described thus: Prodrug activation in PBS at pH 7.4 assessed as drug release at 10 uM in presence of 2 mM GSH measured after 10 mins by HPLC analysis relative to control. The following applies: buffer, pH 7.4, 10 min.
Data set [22] in a line: Prodrug activation in PBS at pH 7.4 assessed as drug release by measuring maximal fluorescence change at 10 uM in presence of 2 mM GSH measured immediately relative to control. The following applies: buffer, pH 7.4, 10 µM.
Data set [23] can be described thus: Prodrug activation in PBS at pH 7.4 assessed as drug release at 10 uM in presence of 2 mM GSH measured after 30 mins by HPLC analysis relative to control. The following applies: buffer, pH 7.4, 0.5 h.
Data set [24] in a line: Prodrug activation in PBS at pH 7.4 assessed as drug release by measuring maximal fluorescence change at 10 uM in presence of 2 mM GSH measured after 40 mins relative to control. The following applies: buffer, pH 7.4, 40 min.
Data set [25] in a line: Prodrug activation in PBS at pH 7.4 assessed as drug release at 10 uM in presence of 2 mM GSH measured immediately by HPLC analysis relative to control. The following applies: buffer, pH 7.4, 10 µM.
A short description of data set [26]: Prodrug activation in PBS at pH 7.4 assessed as drug release at 10 uM in presence of 2 mM GSH measured after 20 mins by HPLC analysis relative to control. The following applies: buffer, pH 7.4, 20 min.
A short description of data set [27]: Prodrug activation in PBS at pH 7.4 assessed as drug release by measuring maximal fluorescence change at 10 uM in presence of 2 mM GSH measured after 10 mins relative to control. The conditions noted are these: buffer, pH 7.4, 10 min.
Data set [28] in a line: Prodrug activation in PBS at pH 7.4 assessed as drug release by measuring maximal fluorescence change at 10 uM in presence of 2 mM GSH measured after 20 mins relative to control. The conditions noted are these: buffer, pH 7.4, 20 min.
Data set [29] in a line: Prodrug activation in PBS at pH 7.4 assessed as drug release at 10 uM in presence of 2 mM GSH measured after 60 to 300 mins by HPLC analysis relative to control. The following applies: buffer, pH 7.4, 10 µM, time 60-300 min.
Data set [30] in a line: Prodrug activation in PBS at pH 7.4 assessed as drug release by measuring maximal fluorescence change at 10 uM in presence of 2 mM GSH measured after 60 to 300 mins relative to control. The following applies: buffer, pH 7.4, 10 µM, time 60-300 min.

Take `C=C(COc1ccccc1)C(=O)c1ccc2cc(N(C)C)ccc2c1`: the Activity was determined as 93.5% in data set [1]; 87.9% in data set [2]; 70.1% in data set [3]; 38.8% in data set [4]; 97.3% in [5]; 93.2% in data set [6]. Moreover, the Activity in data set [7] is 0.7%; in data set [8], 93.5%; in [9], 91.2%; in data set [10], 0%; in data set [11] it was 92.7%; in data set [12] it was 99.1%. The Activity in data set [13] is reported as 93.5%; in data set [14], 95.5%.

As to `C=C(CN(C)Cc1ccccc1)C(=O)c1ccc2cc(N(C)C)ccc2c1`, the Activity in data set [1] is reported as 92.4%; in [2], 85.1%; in data set [3], 72.5%; in [4] it was 50.5%; in data set [5], 96.5%; in data set [6] it was 93.1%. Further, the Activity in data set [7] is 3.8%; in data set [8], 92.2%; in data set [9] it was 88.2%; in data set [10] it was 0%; in data set [11] it was 92%; in data set [12] it was 97.1%. The Activity in [13] is listed as 91.8%; in data set [14], 93.5%.

Consider `C=C(C[N+](C)(C)Cc1ccccc1)C(=O)c1ccc2cc(N(C)C)ccc2c1.[Br-]`, for which the Activity in data set [1] came out at 98.9%; in [2] it was 90.6%; in [3] it was 90.6%; in [4] it was 48.1%; in [5], 98.4%; in data set [6] it was 99.6%. Also, the Activity in data set [7] amounted to 0.5%; in data set [8], 98.2%; in data set [9], 95.6%; in data set [10], 0%; in [11], 98.5%; in [12] it was 99%. The Activity came to 97.8% in data set [13] and 97.2% in data set [14].

In the case of `C=C(COC(=O)OCc1ccccc1)C(=O)c1ccc2cc(N(C)C)ccc2c1`, the Activity in data set [1] is reported as 95.1%; in data set [2], 83.6%; in [3], 65.4%; in data set [4] it was 41%; in data set [5], 96.5%; in [6] it was 94.6%. Moreover, the Activity in [7] is on record as 3.9%; in data set [8], 95.5%; in data set [9], 93.4%; in data set [10], 0%; in data set [11], 94.6%; in data set [12], 97.4%. The Activity in [13] was found to be 94.5%; in data set [14], 96.5%.

Turning to `C=C(COC(=O)c1ccccc1)C(=O)c1ccc2cc(N(C)C)ccc2c1`, the Activity was found to be 83.2% in data set [15]; 72.1% in data set [16]; 98.7% in data set [17]; 88.1% in data set [18]; 97.8% in data set [19]; 99.9% in data set [20]. Further, the Activity in data set [21] was found to be 92.8%; in data set [22], 1.4%; in [23], 98.6%; in [24], 95.7%; in data set [25], 0%; in data set [26] it was 97.3%. For the same compound, the Activity in data set [27] was found to be 40.1%; in data set [28], 71.2%.

As to `C=C(CSCc1ccccc1)C(=O)c1ccc2cc(N(C)C)ccc2c1`, the Activity in [29] is 99.9%; in data set [17], 35.2%; in data set [18], 27.5%; in [19], 78.3%; in [20], 68.6%; in data set [21], 5.6%. The Activity in data set [30] is listed as 98.6%; in data set [22], 4.8%; in [23], 19.9%; in data set [24], 42.2%; in data set [25] it was 0%; in [26], 13.9%. In addition, the Activity in data set [27] was 14.8%; in data set [28] it was 22.1%.

As to `C=C(CSc1ccccc1)C(=O)c1ccc2cc(N(C)C)ccc2c1`, the Activity in data set [1] is 95.4%; in [2], 72.2%; in [3] it was 53.5%; in data set [4], 27.2%; in data set [5], 93.7%; in data set [6], 94.8%. Further, the Activity in data set [7] amounted to 3.1%; in data set [8] it was 90.6%; in [9], 42.6%; in data set [10], 0%; in data set [11], 95.1%; in [12], 96.5%. The Activity in data set [13] worked out at 76.6%; in [14], 86.3%.

`C=C(COC(=O)Cc1ccccc1)C(=O)c1ccc2cc(N(C)C)ccc2c1`: the Activity in data set [1] is listed as 99.1%; in [2], 89.2%; in data set [3] it was 71.5%; in data set [4] it was 42.4%; in data set [5], 97.7%; in data set [6] it was 98.7%. Besides, the Activity in data set [7] is given as 1.2%; in data set [8] it was 98.3%; in data set [9], 94.3%; in data set [10], 0%; in data set [11], 97.5%; in data set [12], 98.1%. Further, the Activity in data set [13] was determined as 97.1%; in data set [14], 95.3%.

Regarding `C=C(COC(=O)Nc1ccccc1)C(=O)c1ccc2cc(N(C)C)ccc2c1`, the Activity in data set [1] is listed as 98.2%; in data set [2], 79.9%; in data set [3] it was 64.6%; in [4], 39.3%; in data set [5], 94.6%; in data set [6] it was 97.9%. Further, the Activity in data set [7] stood at 2.7%; in [8], 96.5%; in data set [9], 82.6%; in data set [10], 0%; in data set [11], 97.1%; in data set [12], 96.5%. For the same compound, the Activity is reported as 91.1% in data set [13] and 88.9% in data set [14].
